Experimental data taken from patent US8507445B2, “Compositions and methods of use of targeting peptides for diagnosis and therapy of human cancer” (Board of Regents, The University of Texas System, priority 2002, dated 2013).
Each block holds one molecule with its values, some of them ahead of it. Bridge positions count the residues as written; N and C are the ends. Square brackets hold non-standard residues; d marks the D form. Ends that are not written are not given here. Peptide text beside a SMILES is read from it.

Experiments:
white fat vasculature [1] = experiment: Peptide and phage localization in tissues; format: in vivo; settings: intravenous, ob/ob mice
Description: (§1) Staining of formalin-fixed, paraffin-embedded mouse tissue sections was performed (Pasqualini & Rouslahti, 1996; Pasqualini et al., 2000). For phage-peptide immunolocalization, 10^10 TU of […] (SEQ ID NO:81)-phage or a control insertless phage was injected intravenously. Phage immunohistochemistry was performed using a rabbit anti-fd phage antibody (Sigma Chemicals, St. Louis, Mo.) used at 1:1,000 dilution and a secondary horseradish peroxidase (HRP)-conjugated antibody. Apoptosis was detected using standard TUNEL immunohistochemistry and an HRP-conjugated antibody. For in vivo peptide homing validation, stocks of 5-carboxyfluorescein (FITC)-conjugated […] (SEQ ID NO:81) or CARAC (SEQ ID NO:71) were chemically synthesized, cyclized using the terminal cysteines and HPLC-purified to >90% purity by Anaspec (San Jose, Calif.). Lyophilized peptides were dissolved in DMSO to a concentration of 20 mM. Ten μl of 1 mM peptide-FITC solution in PBS was injected 5 min prior to tissue extraction. For blood vessel localization, 10 μl of 2 mg/ml of rhodamine-conjugated lectin-I (RL-1102, Vector Laboratories, Burlingame, Calif.) was co-injected. All immunohistochemistry and FITC immunofluorescence images were captured using an Olympus IX70 microscope and digital camera setup (Melville, N.Y.).

white fat vasculature [2] = experiment: Peptide localization in tissues; format: in vivo, C57BL/6 mice
Description: as §1

[3] = system: patient's serum antibodies, anti-GRP78 antibody, anti-CNVSDKSC antibodies; experiment: Cross-inhibition assay; format: binding, human; settings: anti-GRP78 and anti-CNVSDKSC antibodies
Description: Microtiter 96-well plates were coated with 10 μg/ml recombinant GRP78 (Stressgen) or GST attached to […] (SEQ ID NO:39) in 100 mM NaHCO3 overnight at 4° C., washed and then blocked with blocking buffer (2% milk, 1% casein, 0.05% Tween-20 in PBS) for 2 hours at 37° C. To determine the inhibitory activities of GRP78 or GST-[…] (SEQ ID NO:39), patient serum (1:50), anti-GRP78 (1:1000), and anti-GST-[…] (1:20) were incubated with GRP78 (50-100 μg) or GST-[…] (SEQ ID NO:39) (100-300 μg). The mixtures were incubated for 1 hour at 37° C. prior to adding to the coated wells. After 1 hour of incubation at room temperature the wells were washed several times with PBST buffer (0.05% Tween-20 in PBS). Secondary antibodies conjugated to horseradish peroxidase were added at 1:5000 dilution, incubated for 30 minutes at room temperature and washed five times with PBST buffer. Finally, the substrate 3,3′,5,5′-Tetramethylbenzidine (TMB; Calbiochem) was added and incubated for 15 minutes at room temperature before stopping the reaction by addition of 0.5M H2SO4. Absorbance at 450 nm was determined in an automated ELISA reader (Bio-Tek).

[4] = system: bone marrow metastasis from a prostate cancer; experiment: Immunohistochemical staining inhibition; parameters: species or system human; settings: GRP78 staining of bone marrow metastasis
Description: Paraffin sections (4 μm) were stained with purified biotinylated antibodies and peptide antibodies by immunoperoxidase detection using the Dako antigen retrieval kit and DAB (diaminobenzidine) as a substrate. All of the sections were counter-stained with hematoxylin. Purified IgGs were coupled to biotin and resolved by SDS-PAGE. The biotinylated immunopurified antibodies were used at a dilution of 1:60. Peptide C antibodies and purified pre-immune antibodies were used at 0.01 μg/μl. For the inhibition staining, peptide C antibodies were pre-incubated for 30 minutes at room temperature with the corresponding GST-peptide C (500 μg) prior to staining. For the GRP78 immunostaining, anti-GRP78 antibody (C-20) was used at 1:350 (Santa Cruz Biotechnology, Santa Cruz, Calif.). Peptide antibodies were generated in rabbits and purified using a T-gel immunoglobulin purification kit and protein G column (Pierce).

KS1767 cells = experiment: Targeted phage vector transduction and peptide inhibition in cell culture; format: cell-based, human; settings: cells pre-incubated with synthetic peptide
Description: (§2) Targeted phage vector transduction and specific inhibition by using synthetic peptides. MDA-MB-435 breast cancer and KS1767 Karposi's sarcoma cells were cultured on 8-well chamber glass slides. The culture media was replaced by 200 μl of MEM with 2% FCS and 5×10^10 TU of RGD-4C-β-gal, HWGF-β-gal, or fd-β-gal phage vectors (at 10^5 transducing units/cell in each case). Both cell lines express high levels of the integrin and MMP receptors for those targeting peptides. Phage were incubated with cells for 3 hr at 37° C., followed by a medium change to MEM plus 10% FCS. The cells were incubated for 72 hr at 37° C. to allow for β-gal gene expression. […]
(§3) In the cell culture transduction assay, β-gal expression was analyzed by immunofluorescence. For quantification of expression in cell culture, the transduced cells were washed with PBS and permeabilized with 0.2% Triton X-100 for five minutes on ice, followed by blocking with 1% BSA in PBS. […] The degree of β-gal gene expression was determined by counting fluorescent cells in at least ten fields under an inverted microscope (Nikon, Japan). Quantification of the β-gal activity in cell culture was measured as relative light units (RLU) in a luminometer and then normalized to the amount of protein in micrograms, as determined by the Lowry method in a protein assay kit (Bio-Rad Protein Assay®; Hercules, Calif.). […]

[5] = Anti-obesity therapy, regular diet-fed old mice; parameters: species or system C57BL/6 mice; settings: mouse, in vivo
adipose tissue = experiment: Histopathological analysis of tissues from treated mice; settings: mouse, in vivo
Description: as §1

[6] = Injection into genetically obese mice; format: in vivo; settings: not normal obese mice
subcutaneous white fat = experiment: In vivo phage library screening for fat-homing peptides; parameters: species or system ob/ob mice; settings: mouse
Description: In vivo phage-display screening of the CX7C library (C, cysteine; X, any amino acid) (Pasqualini et al., 2000; Arap et al., Nature Med. 8:121-127, 2002) for fat-homing peptides was performed (Pasqualini & Rouslahti 1996, Pasqualini et al., 2000). In each biopanning round, an adult ob/ob mouse was injected intravenously (tail vein) with 10^10 transducing units (TU) of the library. Phage (˜300 TU/g in round 1 increased to ˜10^4 TU/g in round 3) were recovered after 5 min of circulation by grinding subcutaneous white fat with a glass Dounce homogenizer, suspending the homogenate in 4° C. Dulbecco's Modified Eagle's medium (DMEM) containing proteinase inhibitors (DMEM-prin: 1 mM PMSF, 20 μg/ml aprotinin, and 1 μg/ml leupeptin) and washing with DMEM-prin. The lipid phase was discarded during the washes and only the solid-phase cellular material was used. Washed homogenates were incubated with host bacteria (log phase E. coli K91kan; OD600˜2). Bacterial cultures were plated onto Luria-Bertani agar plates containing 40 μg/ml tetracycline and 100 μg/ml kanamycin, incubated overnight at 37° C. and selected clones were bulk-amplified and used to precipitate phage for a subsequent round of biopanning. The sub-library amplified after the third round of panning was enriched for fat-specific binders using a subtraction step. […]

prohibitin = target: T1, prohibitin (Mus musculus, UniProt P67778); experiment: Adipose receptor identification by binding and immunoprecipitation
T1 construct: from tissue; host or cells: mouse adipose tissue extract
T1 sequence (P67778 2-272): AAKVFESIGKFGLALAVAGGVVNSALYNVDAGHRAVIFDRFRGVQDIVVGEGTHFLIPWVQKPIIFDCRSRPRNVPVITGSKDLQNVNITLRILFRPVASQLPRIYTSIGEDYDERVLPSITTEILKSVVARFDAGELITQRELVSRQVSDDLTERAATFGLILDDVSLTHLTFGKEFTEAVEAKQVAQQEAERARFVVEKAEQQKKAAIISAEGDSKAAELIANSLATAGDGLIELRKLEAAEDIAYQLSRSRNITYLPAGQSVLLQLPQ
Description: A band of approximately 35,000 Daltons (35 kDa) was isolated from mouse adipose tissue extract that bound to […] (SEQ ID NO:81) conjugated to (KLAKLAK)2 (SEQ ID NO:1) (not shown). […] The 35 kDa band was analyzed by mass spectrometry, which identified three proteins present in the sample.
The three proteins included predominately a B cell receptor associated protein (prohibitin), apolipoprotein E, and the voltage dependent anion channel (VDAC). Further studies were performed by immunoprecipitation, using either […] (SEQ ID NO:81) or CARAC (SEQ ID NO:71) conjugated to […] (SEQ ID NO:1) and precipitating with commercially available antibodies.

MDA-MB-435 cells = experiment: Targeted phage vector transduction and peptide inhibition in cell culture; format: cell-based, human; settings: cells pre-incubated with synthetic peptide
Description: as §2, §3

Molecule: CKGGRAKDC-FITC: 5-carboxyfluorescein (FITC)-conjugated cyclized CKGGRAKDC (disulfide 1-9 (inferred); also: FITC conjugate, site not given here)
localization to white fat vasculature (white fat vasculature [1]): localized to and was internalized by cells of white adipose vasculature | localization to white fat vasculature (white fat vasculature [2]; intravenous, C57BL/6 (leptin +/+) mice): specifically localized to blood vessels of subcutaneous and peritoneal white fat | co-localization with lectin-rhodamine in control tissue (white fat vasculature [2]; pancreatic tissue): No such co-localization was observed

blocking of antibody binding [3]: capable of blocking binding
Molecule: GRP78: recombinant 78 kDa glucose regulated protein (Stressgen)
inhibition of immunostaining [4]: staining was inhibited

Molecule: CTTHWGFTLC (disulfide 1-10 (inferred))
inhibition of HWGF-β-gal phage transduction (KS1767 cells): greater than 90%

Molecule: CC(C)C[C@@H](NC(=O)[C@@H](CCCCN)NC(=O)CNC(=O)CNC(=O)[C@@H]1CSSC[C@H](N)C(=O)N[C@@H](CCCCN)C(=O)NCC(=O)NCC(=O)N[C@@H](CCCNC(=N)N)C(=O)N[C@@H](C)C(=O)N[C@@H](CCCCN)C(=O)N[C@@H](CC(=O)O)C(=O)N1)C(=O)N[C@H](C)C(=O)N[C@H](CCCCN)C(=O)N[C@H](CC(C)C)C(=O)N[C@H](C)C(=O)N[C@H](CCCCN)C(=O)N[C@H](CCCCN)C(=O)N[C@H](CC(C)C)C(=O)N[C@H](C)C(=O)N[C@H](CCCCN)C(=O)N[C@H](CC(C)C)C(=O)N[C@H](C)C(=O)N[C@H](CCCCN)C(=O)O (H-CKGGRAKDCGG[dK][dL][dA][dK][dL][dA][dK][dK][dL][dA][dK][dL][dA][dK]-OH; disulfide 1-9)
toxicity [5]: No toxicity | abnormalities in other organs (adipose tissue): No abnormalities in other organs | mortality [6]: occasionally observed to result in mortality

receptor identified (prohibitin; adipose tissue endothelial receptor): prohibitin | enrichment of prohibitin in precipitated fraction (prohibitin; compared to the CARAC precipitated fraction): over a ten-fold enrichment
Molecule: CKGGRAKDC
share of all clones identified in the screen (subcutaneous white fat): 4.5%

Molecule: CDCRGDCFC (also: cyclized) [RGD-4C]
inhibition of RGD-4C-β-gal phage transduction (MDA-MB-435 cells): greater than 99%
